Measured values published in patent US7432288B2, “Pyrrole-2,5-dione derivatives as Liver X receptor modulators” (AstraZeneca AB, priority 2003, dated 2008).
pEC50: −log10 of the molar value.

Target: T1, LXRalpha and/or beta (human LXR ligand binding domain)
T1 construct: fused on or other part: His-tag (6xHis) on the LXR-LBD
Assay: Co-activator recruitment assay (time-resolved fluorescence, SRC-1 peptide)
Assay type: biochemical
Conditions: LXR subtype (alpha or beta) not stated for these values; 22-R Hydroxycholesterol at 50 μM as 100% control; read-out: EC50 in coactivator recruitment assays
Description: The Ligand Binding Domain (LBD) of human LXRalpha (amino acid 205-447) and LXRbeta (amino acid 216-461) was produced by recombinant techniques in E coli. A fragment of the human Steroid Receptor Co-Activator-1 (SRC-1) was produced as a synthetic peptide. An anti-6His-antibody coupled with Europium (Eu^3+) was used to recognize the His-tag on the LXR-LBD and Allophycocyanin (APC) coupled to streptavidin was used to recognize the biotinylated SRC-1. Agonist binding to LXRalpha or LXRbeta enhances the affinity of LXR towards SRC-1 and thereby brings Eu^3+ and APC in close proximity. Eu^3+ is excited at 337 nm and emitts light at 620 nm. This emission, when in close proximity, excites APC to emit light at 665 nm.
Dilution plates with compounds in DMSO were further diluted in buffer {20 mM [Tris(hydroxymethyl)aminomethane] pH 7.5, 0.125% CHAPS {3-[(3-Cholamidopropyl)dimethylammonio]-1-propanesulfonate}, 2 mM DTT (Dithiothreitol) and 0.05% BSA (Bovine Serum Albumin)} in order to reduce DMSO concentration, 0.5 μl to 13.5 μl. To this, 6 μl assay mix was added and the plates (384-well V-groove plates) were incubated at room temperature for 60 to 80 min. […] Time-resolved fluorescence readings were done in a Wallac Victor reader at 665 nm followed by reading at 615 nm. […]

Structure (SMILES)	pEC50
COc1ccc(NC2=C(c3ccccc3)C(=O)N(Cc3ccc(N(C)C)cc3)C2=O)cc1 [Example 13, 1-[4-(Dimethylamino)benzyl]-3-[(4-methoxyphenyl)amino]-4-phenyl-1H-pyrrole-2,5-dione]	6.82
COc1ccc(NC2=C(c3ccccc3)C(=O)N(Cc3cc(C)on3)C2=O)cc1 [Example 22, 3-[(4-Methoxyphenyl)amino]-1-[(5-methylisoxazol-3-yl)methyl]-4-phenyl-1H-pyrrole-2,5-dione]	6.96
